Experimental findings from patent US8404708B2, “Dual NK1/NK3 receptor antagonists” (Hoffmann-La Roche Inc., priority 2004, dated 2013) are described below.

Assay [1] concerns the target human NK1 receptor (Homo sapiens, UniProt P25103). Description: NK1 receptor binding, [3H]substance P displacement, CHO cell membranes.
Assay [2] deals with T1, Recombinant human NK3 (hNK3) receptor (Homo sapiens, UniProt P29371).
T1 construct: expressed in transfected cells
T1 sequence (P29371 1-465): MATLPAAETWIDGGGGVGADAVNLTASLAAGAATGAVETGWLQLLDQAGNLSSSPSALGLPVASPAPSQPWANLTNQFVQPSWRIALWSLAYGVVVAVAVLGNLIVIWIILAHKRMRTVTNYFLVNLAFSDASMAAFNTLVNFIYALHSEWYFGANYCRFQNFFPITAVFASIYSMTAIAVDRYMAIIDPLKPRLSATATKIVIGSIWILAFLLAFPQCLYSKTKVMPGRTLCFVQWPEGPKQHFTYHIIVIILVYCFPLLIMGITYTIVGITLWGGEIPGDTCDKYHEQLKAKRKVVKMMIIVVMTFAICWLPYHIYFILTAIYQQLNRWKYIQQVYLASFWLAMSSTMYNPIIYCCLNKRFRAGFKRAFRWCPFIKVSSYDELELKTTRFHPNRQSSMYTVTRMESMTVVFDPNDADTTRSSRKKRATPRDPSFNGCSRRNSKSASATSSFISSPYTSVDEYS
Kind of assay: NK3 receptor binding, [3H]SR142801 displacement, membrane preparations. In a few lines: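 Incubation ran 90 min at room temperature in 50 mM Tris-HCl pH 7.4 with 0.1% BSA, 4 mM MnCl2 and 1 μM phosphoramidon, using about 2.5 μg hNK3 membrane protein per well. Nonspecific binding was defined with 10 μM SB222200, and bound radioactivity was collected on PEI-soaked GF/C filters for scintillation counting.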

[3] abbreviates: first value of the cell pKi NK1/NK3, human NK1 receptor, [3H]substance P.
The mark [4] stands for this setting: second value of the cell pKi NK1/NK3, hNK3 receptor, [3H]SR142801.
[5] abbreviates: first value of the cell NK1/NK3, read-out: pKi NK1 (converted).
Where [6] appears, read: second value of the cell NK1/NK3, read-out: pKi NK3 (converted).

SMILES strings stand for the structures. Like-named read-outs stand apart in the source and are kept apart here.

Sequence of human NK1 receptor (P25103 whole entry): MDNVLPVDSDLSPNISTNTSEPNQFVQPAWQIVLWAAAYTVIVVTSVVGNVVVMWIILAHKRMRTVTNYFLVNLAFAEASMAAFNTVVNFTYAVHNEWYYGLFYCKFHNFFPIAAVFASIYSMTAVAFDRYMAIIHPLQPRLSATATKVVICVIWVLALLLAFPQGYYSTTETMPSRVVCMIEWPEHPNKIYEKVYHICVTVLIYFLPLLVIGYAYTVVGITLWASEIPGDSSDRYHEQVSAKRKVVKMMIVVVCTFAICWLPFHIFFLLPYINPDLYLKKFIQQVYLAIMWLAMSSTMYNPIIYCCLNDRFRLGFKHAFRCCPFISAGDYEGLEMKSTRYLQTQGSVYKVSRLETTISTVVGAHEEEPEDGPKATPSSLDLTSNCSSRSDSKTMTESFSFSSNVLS

As to `Cc1cc(C)cc(C(C)(C)C(=O)N(C)c2cnc(N3CCC[C@H]3CO)cc2-c2ccccc2Cl)c1` [Example 9, (S)-N-[4-(2-Chloro-phenyl)-6-(2-hydroxymethyl-pyrrolidin-1-yl)-pyridin-3-yl]-2-(3,5-dimethyl-phenyl)-N-methyl-isobutyramide], the Ki is 6.46 nM in assay [1] (setting [3]) and 3.63 nM in assay [2] (setting [4]).
The matching figures for `Cc1cc(F)ccc1-c1cc(N(CCO)CCO)ncc1N(C)C(=O)C(C)(C)c1cc(C(F)(F)F)cc(C(F)(F)F)c1` [Example 84, N-[6-[Bis-(2-hydroxy-ethyl)-amino]-4-(4-fluoro-2-methyl-phenyl)-pyridin-3-yl]-2-(3,5-bis-trifluoromethyl-phenyl)-N-methyl-isobutyramide]: 3.39 nM and 1.74 nM.
Take `CN(C(=O)C(C)(C)c1cc(C(F)(F)F)cc(C(F)(F)F)c1)c1cnc(N2CC[C@H](O)[C@H](O)C2)cc1-c1ccccc1Cl` (racemic) [Example 187, (3RS,4SR)-2-(3,5-Bis-trifluoromethyl-phenyl)-N-[4′-(2-chloro-phenyl)-3,4-dihydroxy-3,4,5,6-tetrahydro-2H-[1,2′]bipyridinyl-5′-yl]-N-methyl-isobutyramide]: the Ki is 1.66 nM in assay [1] (setting [3]) and 25.7 nM in assay [2] (setting [4]).
In the case of `Cc1ccccc1-c1cc(N2CCC[C@H]2CO)ncc1N(C)C(=O)C(C)(C)c1cc(F)cc(C(F)(F)F)c1` [Example 13, (S)-2-(3-Fluoro-5-trifluoromethyl-phenyl)-N-[6-(2-hydroxymethyl-pyrrolidin-1-yl)-4-o-tolyl-pyridin-3-yl]-N-methyl-isobutyramide], the Ki was 2.19 nM in assay [1] (setting [3]) and 1.55 nM in assay [2] (setting [4]).
As for `Cc1cc(F)ccc1-c1cc(N2C[C@H](O)C[C@@H]2CO)ncc1N(C)C(=O)C(C)(C)c1cc(C(F)(F)F)cc(C(F)(F)F)c1` [Example 258, (2R,4R)-2-(3,5-Bis-trifluoromethyl-phenyl)-N-[4-(4-fluoro-2-methyl-phenyl)-6-(4-hydroxy-2-hydroxymethyl-pyrrolidin-1-yl)-pyridin-3-yl]-N-methyl-isobutyramide], the Ki in assay [1] (setting [5]) was 2 nM; in assay [2] (setting [6]), 10 nM.
As to `Cc1ccccc1-c1cc(NC[C@H](C)O)ncc1N(C)C(=O)C(C)(C)c1cc(C(F)(F)F)cc(C(F)(F)F)c1` [Example 120, (S)-2-(3,5-Bis-trifluoromethyl-phenyl)-N-[6-(2-hydroxy-propylamino)-4-o-tolyl-pyridin-3-yl]-N-methyl-isobutyramide], the Ki in assay [1] (setting [3]) is 1.38 nM; in assay [2] (setting [4]), 10 nM.
`CN(C(=O)C(C)(C)c1cc(C(F)(F)F)cc(C(F)(F)F)c1)c1cnc(NC[C@H](O)CO)cc1-c1ccccc1Cl` [Example 125, (S)-2-(3,5-Bis-trifluoromethyl-phenyl)-N-[4-(2-chloro-phenyl)-6-(2,3-dihydroxy-propylamino)-pyridin-3-yl]-N-methyl-isobutyramide]: the Ki in assay [1] (setting [3]) is 2.82 nM; in assay [2] (setting [4]), 13.8 nM.
With `CSc1ccccc1-c1cc(N2C[C@H](O)C[C@H]2CO)ncc1N(C)C(=O)C(C)(C)c1cc(C(F)(F)F)cc(C(F)(F)F)c1` [Example 217, (2S,4R)-2-(3,5-Bis-trifluoromethyl-phenyl)-N-[6-(4-hydroxy-2-hydroxymethyl-pyrrolidin-1-yl)-4-(2-methylsulfanyl-phenyl)-pyridin-3-yl]-N-methyl-isobutyramide], the Ki in assay [1] (setting [5]) is 1.05 nM; in assay [2] (setting [6]) it was 2.4 nM.
Consider `C[C@@H](O)[C@H](CO)Nc1cc(-c2ccccc2Cl)c(N(C)C(=O)C(C)(C)c2cc(C(F)(F)F)cc(C(F)(F)F)c2)cn1` [Example 146, (1S,2R)-2-(3,5-Bis-trifluoromethyl-phenyl)-N-[4-(2-chloro-phenyl)-6-(2-hydroxy-1-hydroxymethyl-propylamino)-pyridin-3-yl]-N-methyl-isobutyramide], for which the figures for the Ki in assay [1] (setting [3]) and in assay [2] (setting [4]) were 0.891 nM and 11.7 nM, respectively.
In the case of `CN(C(=O)C(C)(C)c1cc(C(F)(F)F)cc(C(F)(F)F)c1)c1cnc(N2C[C@H](O)C[C@H]2CO)cc1-c1cc(F)cc(F)c1` [Example 208, (2S,4R)-2-(3,5-Bis-trifluoromethyl-phenyl)-N-[4-(3,5-difluoro-phenyl)-6-(4-hydroxy-2-hydroxymethyl-pyrrolidin-1-yl)-pyridin-3-yl]-N-methyl-isobutyramide], the Ki in assay [1] (setting [5]) is 1.35 nM; in assay [2] (setting [6]), 6.17 nM.
On to `C[C@H](O)[C@@H](CO)Nc1cc(-c2ccccc2Cl)c(N(C)C(=O)C(C)(C)c2cc(C(F)(F)F)cc(C(F)(F)F)c2)cn1` [Example 145, (1R,2S)-2-(3,5-Bis-trifluoromethyl-phenyl)-N-[4-(2-chloro-phenyl)-6-(2-hydroxy-1-hydroxymethyl-propylamino)-pyridin-3-yl]-N-methyl-isobutyramide], for which the Ki in assay [1] (setting [3]) was 0.832 nM; in assay [2] (setting [4]) it was 7.94 nM.
In the case of `Cc1cc(F)ccc1-c1cc(N2C[C@H](O)C[C@H]2CO)ncc1N(C)C(=O)C(C)(C)c1cc(C(F)(F)F)cc(C(F)(F)F)c1` [Example 158, (2S,4R)-2-(3,5-Bis-trifluoromethyl-phenyl)-N-[4-(4-fluoro-2-methyl-phenyl)-6-(4-hydroxy-2-hydroxymethyl-pyrrolidin-1-yl)-pyridin-3-yl]-N-methyl-isobutyramide], the figures for the Ki in assay [1] (setting [3]) and in assay [2] (setting [4]) were 1.66 nM and 0.955 nM, respectively.
Consider `C[C@@H](O)[C@@H](CO)Nc1cc(-c2ccccc2Cl)c(N(C)C(=O)C(C)(C)c2cc(C(F)(F)F)cc(C(F)(F)F)c2)cn1` [Example 144, (1R,2R)-2-(3,5-Bis-trifluoromethyl-phenyl)-N-[4-(2-chloro-phenyl)-6-(2-hydroxy-1-hydroxymethyl-propylamino)-pyridin-3-yl]-N-methyl-isobutyramide], for which the Ki was 3.63 nM in assay [1] (setting [3]) and 1.2 nM in assay [2] (setting [4]).
`Cc1cc(F)ccc1-c1cc(N2C[C@H](O)C[C@H]2CO)ncc1N(C)C(=O)C(C)(C)c1cc(F)cc(F)c1` [Example 29, (2S,4R)-2-(3,5-Difluoro-phenyl)-N-[4-(4-fluoro-2-methyl-phenyl)-6-(4-hydroxy-2-hydroxymethyl-pyrrolidin-1-yl)-pyridin-3-yl]-N-methyl-isobutyramide]: the Ki was 1.55 nM in assay [1] (setting [3]) and 3.55 nM in assay [2] (setting [4]).
In the case of `CN(C(=O)C(C)(C)c1cc(C(F)(F)F)cc(C(F)(F)F)c1)c1cnc(N2C[C@@H](O)C[C@H]2CO)cc1-c1ccccc1C(F)(F)F` [Example 243, (2S,4S)-2-(3,5-Bis-trifluoromethyl-phenyl)-N-[6-(4-hydroxy-2-hydroxymethyl-pyrrolidin-1-yl)-4-(2-trifluoromethyl-phenyl)-pyridin-3-yl]-N-methyl-isobutyramide], the Ki in assay [1] (setting [5]) was 3.89 nM; in assay [2] (setting [6]), 4.68 nM.
On to `CC(=O)N1CCCN(c2cc(-c3ccccc3Cl)c(N(C)C(=O)C(C)(C)c3cc(C(F)(F)F)cc(C(F)(F)F)c3)cn2)CC1` [Example 63, N-[6-(4-Acetyl-[1,4]diazepan-1-yl)-4-(2-chloro-phenyl)-pyridin-3-yl]-2-(3,5-bis-trifluoromethyl-phenyl)-N-methyl-isobutyramide], for which the Ki is 1.82 nM in assay [1] (setting [3]) and 1.17 nM in assay [2] (setting [4]).
As for `COc1cc(Cl)cc(C(C)(C)C(=O)N(C)c2cnc(N3C[C@H](O)C[C@H]3CO)cc2-c2ccccc2Cl)c1` [Example 8, (2S,4R)-2-(3-Chloro-5-methoxy-phenyl)-N-[4-(2-chloro-phenyl)-6-(4-hydroxy-2-hydroxymethyl-pyrrolidin-1-yl)-pyridin-3-yl]-N-methyl-isobutyramide], the Ki was 1.7 nM in assay [1] (setting [3]) and 1.26 nM in assay [2] (setting [4]).
The matching figures for `Cc1ccccc1-c1cc(NC[C@H](O)CO)ncc1N(C)C(=O)C(C)(C)c1cc(C(F)(F)F)cc(C(F)(F)F)c1` [Example 122, (S)-2-(3,5-Bis-trifluoromethyl-phenyl)-N-[6-(2,3-dihydroxy-propylamino)-4-o-tolyl-pyridin-3-yl]-N-methyl-isobutyramide]: 1.91 nM and 19.5 nM.
In the case of `CN(C(=O)C(C)(C)c1cc(C(F)(F)F)cc(C(F)(F)F)c1)c1cnc(N2C[C@H](O)C[C@H]2CO)cc1-c1ccccc1CO` [Example 225, (2S,4R)-2-(3,5-Bis-trifluoromethyl-phenyl)-N-[6-(4-hydroxy-2-hydroxymethyl-pyrrolidin-1-yl)-4-(2-hydroxymethyl-phenyl)-pyridin-3-yl]-N-methyl-isobutyramide], the Ki in assay [1] (setting [5]) is 1.66 nM; in assay [2] (setting [6]) it was 2.57 nM.
Regarding `CN(C(=O)C(C)(C)c1cc(C(F)(F)F)cc(C(F)(F)F)c1)c1cnc(N2C[C@H](O)C[C@@H](O)C2)cc1-c1ccccc1Cl` [Example 180, (3R,5R)-2-(3,5-Bis-trifluoromethyl-phenyl)-N-[4′-(2-chloro-phenyl)-3,5-dihydroxy-3,4,5,6-tetrahydro-2H-[1,2′]bipyridinyl-5′-yl]-N-methyl-isobutyramide], the Ki in assay [1] (setting [3]) is 1.62 nM; in assay [2] (setting [4]) it was 3.24 nM.
